Assay results reported in US20200331855A1, “CO-CRYSTAL OF TOCOPHEROL AND PROLINE AND PREPARATION METHOD THEREOF” (priority 2017, published 2020).
Values belong to the compound of their own block, whether it stands above or below them.

Columns and labels:
[1] = Acceleration test (40° C./75% relative humidity), synthetic tocopherol vs co-crystal, total tocopherol content; type: physicochemical
Experimental: The content was determined by HPLC, the content was calculated by the external standard method, and the content is calculated based on the total tocopherol content. Both the initial tocopherol contents in the synthetic tocopherol itself and in the co-crystals were set at 100%.

[2] = Accelerated test stability (40° C./75% relative humidity), D-α-tocopherol vs co-crystal; type: physicochemical
Experimental: (§1) The content was determined by HPLC, and the content was calculated by the external standard method.

[3] = High temperature test (60° C.), content by HPLC and appearance; type: physicochemical
Experimental: as §1

[4] = Strong light irradiation test (5500 Lux), content by HPLC and appearance; type: physicochemical; conditions: 25° C.
Experimental: as §1

[5] = Long-term test stability (25° C./60% relative humidity); type: physicochemical; conditions: Month 0, initial content set at 100%
Experimental: as §1

[6] = 200 g lean beef, 69 mg co-crystal or same equivalent, stored at 2-4° C. for 8 days
Experimental: A. the lean beef was cut into pieces with a size of about 2×2 cm, 200 grams for each.
All samples were placed in a metal dish, numbered and stored at 2-4° C. for 8 days.

content ([1]; Month 0, initial set at 100%): 100.0% | content ([1]; Month 1): 94.1%
Compound: Cc1c(C)c2c(c(C)c1O)CCC(C)(CCCC(C)CCCC(C)CCCC(C)C)O2 (racemic) [synthetic tocopherol, DL-α-tocopherol]

content ([2]; Month 0, initial content set at 100%): 100% | content ([2]; Month 1): 98.0% | content ([2]; Month 2): 99.1% | content ([3]; Day 0, HPLC, initial content set at 100%): 100% | content ([3]; Day 5, % of initial content): 96.7% | content ([3]; Day 10, % of initial content): 89.4% | content ([3]; Day 20, % of initial content): 78.7% | content ([3]; Day 30, % of initial content): 77.3% | content ([4]; near UV 90 μW/cm^2, Day 0, initial content set at 100%): 100% | content ([4]; near UV 90 μW/cm^2, Day 5): 97.8% | content ([4]; near UV 90 μW/cm^2, Day 10): 91.8% | content ([4]; near UV 90 μW/cm^2, Day 20): 88.5% | content [5]: 100.0%
Compound: Cc1c(C)c2c(c(C)c1O)CC[C@@](C)(CCC[C@H](C)CCC[C@H](C)CCCC(C)C)O2 [D-α-tocopherol]

Compound: co-crystal of D-α-tocopherol and L-proline
flavor (rancidity) of beef [6]: except for the sample added with the co-crystal of D-α-tocopherol and L-proline, both of the other two samples have rancidity | meat color of beef [6]: can delay the darkening and greening of beef
